Measurements from patent US20190255086A1, “Compositions and Methods for Treating an Infection” (CMPD Licensing, LLC, priority 2015, published 2019).

Assays:
Bacteroides fragilis = assay: Expected efficacy of anti-bacterial agents against various bacteria (Tables 5 and 6); conditions: Gram: anaer
Clostridium difficile = assay: as above; conditions: Gram: anaer
Chlamydia pneumoniae = assay: Expected efficacy of anti-bacterial agents against various bacteria (Tables 5 and 6); conditions: Gram: n/a
Chlamydia trachomatis = assay: Expected efficacy of anti-bacterial agents against various bacteria (Tables 5 and 6); conditions: Gram: n/a
Mycoplasma pneumoniae = assay: as above; conditions: Gram: n/a
Acinetobacter baumannii = assay: as above; conditions: Gram: neg
[1] = system: Acinetobacter calcoaceticus; assay: as above; conditions: Gram: neg
Acinetobacter lwoffii = assay: as above; conditions: Gram: neg
Bartonella bacilliformis = assay: as above; conditions: Gram: neg
Bordetella pertussis = assay: as above; conditions: Gram: neg
Campylobacter jejuni = assay: Expected efficacy of anti-bacterial agents against various bacteria (Tables 5 and 6); conditions: Gram: neg
Citrobacter diversus = assay: as above; conditions: Gram: neg
Citrobacter freundii = assay: as above; conditions: Gram: neg
Enterobacter aerogenes = assay: as above; conditions: Gram: neg
Enterobacter cloacae = assay: as above; conditions: Gram: neg
Enterobacter sakazakii = assay: as above; conditions: Gram: neg
Escherichia coli = assay: as above; conditions: Gram: neg
Haemophilus ducreyi = assay: Expected efficacy of anti-bacterial agents against various bacteria (Tables 5 and 6); conditions: Gram: neg
Haemophilus influenzae = assay: as above; conditions: Gram: neg
[2] = system: Haemophilus parainfluenzae; assay: as above; conditions: Gram: neg
[3] = system: Klebsiella (Calymmatobacterium) granulomatis; assay: as above; conditions: Gram: neg
Klebsiella oxytoca = assay: as above; conditions: Gram: neg
Klebsiella pneumoniae = assay: as above; conditions: Gram: neg
Moraxella catarrhalis = assay: Expected efficacy of anti-bacterial agents against various bacteria (Tables 5 and 6); conditions: Gram: neg
Morganella morganii = assay: as above; conditions: Gram: neg
Neisseria gonorrhoeae = assay: as above; conditions: Gram: neg
Neisseria meningitidis = assay: as above; conditions: Gram: neg
Proteus mirabilis = assay: as above; conditions: Gram: neg
Proteus vulgaris = assay: as above; conditions: Gram: neg
Providencia rettgeri = assay: as above; conditions: Gram: neg
Providencia stuartii = assay: as above; conditions: Gram: neg
Pseudomonas aeruginosa = assay: as above; conditions: Gram: neg
Pseudomonas fluorescens = assay: as above; conditions: Gram: neg
Salmonella typhi = assay: Expected efficacy of anti-bacterial agents against various bacteria (Tables 5 and 6); conditions: Gram: neg
Serratia marcescens = assay: as above; conditions: Gram: neg
Shigella boydii = assay: as above; conditions: Gram: neg
Shigella dysenteriae = assay: as above; conditions: Gram: neg
Shigella flexneri = assay: as above; conditions: Gram: neg
Shigella sonnei = assay: as above; conditions: Gram: neg
Vibrio cholerae = assay: as above; conditions: Gram: neg
Corynebacterium jeikeium = assay: Expected efficacy of anti-bacterial agents against various bacteria (Tables 5 and 6); conditions: Gram: pos
[4] = system: Corynebacterium urealyticum; assay: as above; conditions: Gram: pos
Diphtheroids = assay: as above; conditions: Gram: pos
Enterococcus faecalis = assay: as above; conditions: Gram: pos
Enterococcus faecium = assay: as above; conditions: Gram: pos
[5] = system: Methicillin resistant staph aureus (MRSA); assay: as above; conditions: Gram: pos
Peptostreptococcus = assay: as above; conditions: Gram: pos
[6] = system: Staphylococcus aureus (MSSA); assay: as above; conditions: Gram: pos
[7] = system: Staphylococcus epidermidis; assay: as above; conditions: Gram: pos
Streptococcus agalactiae = assay: as above; conditions: Gram: pos
Streptococcus pneumoniae = assay: as above; conditions: Gram: pos
Streptococcus pyogenes = assay: as above; conditions: Gram: pos
[8] = system: Viridans group streptococci; assay: as above; conditions: Gram: pos
Aspergillus fumigatus = assay: Expected efficacy of anti-fungal agents against various fungi (Table 4)
Blastomyces dermatitidis = assay: as above
Candida species = assay: as above
Coccidioides immitis = conditions: expected efficacy
Cryptococcus neoformans = assay: Expected efficacy of anti-fungal agents against various fungi (Table 4)

CN[C@H](CC(C)C)C(=O)N[C@H]1C(=O)N[C@@H](CC(N)=O)C(=O)N[C@H]2C(=O)N[C@H]3C(=O)N[C@H](C(=O)N[C@H](C(=O)O)c4cc(O)cc(O)c4-c4cc3ccc4O)[C@H](O)c3ccc(c(Cl)c3)Oc3cc2cc(c3O[C@@H]2O[C@H](CO)[C@@H](O)[C@H](O)[C@H]2O[C@H]2C[C@](C)(N)[C@H](O)[C@H](C)O2)Oc2ccc(cc2Cl)[C@H]1O [Vancomycin]
no: Efficacy of various antibiotic agents (Bacteroides fragilis) | Efficacy of various antibiotic agents (Clostridium perfringens) | Efficacy of various antibiotic agents (Chlamydia pneumoniae) | Efficacy of various antibiotic agents (Chlamydia psittaci) | Efficacy of various antibiotic agents (Chlamydia trachomatis) | Efficacy of various antibiotic agents (Mycoplasma pneumoniae) | Efficacy of various antibiotic agents (Acinetobacter baumannii) | Efficacy of various antibiotic agents [1] | Efficacy of various antibiotic agents (Acinetobacter lwoffii) | Efficacy of various antibiotic agents (Bartonella bacilliformis) | Efficacy of various antibiotic agents (Bordetella pertussis) | Efficacy of various antibiotic agents (Brucella species) | Efficacy of various antibiotic agents (Campylobacter jejuni) | Efficacy of various antibiotic agents (Citrobacter diversus) | Efficacy of various antibiotic agents (Citrobacter freundii) | Efficacy of various antibiotic agents (Enterobacter aerogenes) | Efficacy of various antibiotic agents (Enterobacter cloacae) | Efficacy of various antibiotic agents (Enterobacter sakazakii) | Efficacy of various antibiotic agents (Escherichia coli) | Efficacy of various antibiotic agents (Francisella tularensis) | Efficacy of various antibiotic agents (Haemophilus ducreyi) | Efficacy of various antibiotic agents (Haemophilus influenzae) | Efficacy of various antibiotic agents [2] | Efficacy of various antibiotic agents [3] | Efficacy of various antibiotic agents (Klebsiella oxytoca) | Efficacy of various antibiotic agents (Klebsiella pneumoniae) | Efficacy of various antibiotic agents (Legionella pneumophila) | Efficacy of various antibiotic agents (Moraxella catarrhalis) | Efficacy of various antibiotic agents (Morganella morganii) | Efficacy of various antibiotic agents (Neisseria gonorrhoeae) | Efficacy of various antibiotic agents (Neisseria meningitidis) | Efficacy of various antibiotic agents (Proteus mirabilis) | Efficacy of various antibiotic agents (Proteus vulgaris) | Efficacy of various antibiotic agents (Providencia rettgeri) | Efficacy of various antibiotic agents (Providencia stuartii) | Efficacy of various antibiotic agents (Pseudomonas aeruginosa) | Efficacy of various antibiotic agents (Pseudomonas fluorescens) | Efficacy of various antibiotic agents (Rickettsiae) | Efficacy of various antibiotic agents (Salmonella typhi) | Efficacy of various antibiotic agents (Serratia marcescens) | Efficacy of various antibiotic agents (Shigella boydii) | Efficacy of various antibiotic agents (Shigella dysenteriae) | Efficacy of various antibiotic agents (Shigella flexneri) | Efficacy of various antibiotic agents (Shigella sonnei) | Efficacy of various antibiotic agents (Vibrio cholerae) | Efficacy of various antibiotic agents (Yersinia pestis)
yes, not VRE: Efficacy of various antibiotic agents (Enterococcus faecium)
yes: Efficacy of various antibiotic agents (Clostridium difficile) | Efficacy of various antibiotic agents (Corynebacterium jeikeium) | Efficacy of various antibiotic agents [4] | Efficacy of various antibiotic agents (Diphtheroids) | Efficacy of various antibiotic agents (Enterococcus faecalis) | Efficacy of various antibiotic agents [5] | Efficacy of various antibiotic agents (Peptostreptococcus) | Efficacy of various antibiotic agents [6] | Efficacy of various antibiotic agents [7] | Efficacy of various antibiotic agents (Streptococcus agalactiae) | Efficacy of various antibiotic agents (Streptococcus pneumoniae) | Efficacy of various antibiotic agents (Streptococcus pyogenes) | Efficacy of various antibiotic agents [8]

OC(Cn1cncn1)(Cn1cncn1)c1ccc(F)cc1F [Fluconazole]
yes: Efficacy of various antifungal agents (Aspergillus fumigatus) | Efficacy of various antifungal agents (Blastomyces dermatitidis) | Efficacy of various antifungal agents (Candida species) | Efficacy of various antifungal agents (Coccidioides immitis) | Efficacy of various antifungal agents (Cryptococcus neoformans)
